In patent US9341616B2, “Sweet taste receptor chimeric proteins and use thereof” (AJINOMOTO CO., INC., priority 2014, dated 2016) one finds S/N data, which are given here for 8 molecules.

The target of this test is h-mT1R2-EX5/T1R3mosaicA (UniProt Q8TE23+Q925D8, A12W/A31M/A537S/A558R/A564V/A568V/A570T/A588V/A645S/A649T/A658V/A698V/A702T/A782V/A793V/A807V/C582S/C678S/E16H/E530V/E534N/E542M/E548N/E725V/F14L/F29L/F525Y/F541I/F612A/F622V/F665L/F695L/G696N/G701T/H528R/H728R/I36V/I490V/I510L/I518V/I595M/I60P/I617V/I643V/I645L/I692L/I695G/I706V/I740A/I803L/K30R/K504M/K555R/K565R/K626T/K714N/K818R/K827G/L17P/L521P/L560F/L571I/L578I/L610P/L631F/L636F/L639V/L684P/L688V/L702I/L734M/L735F/L800F/L823M/L825Q/M19T/M492I/M616G/M644L/M682V/M690V/M744T/M748V/N52R/N540G/N541S/N547G/N58S/N63T/N675D/N721H/P545F/P561R/P564S/P61V/P638T/P824S/Q32K/Q536L/Q53S/Q546K/Q550E/Q555R/Q56R/Q611L/Q676H/Q757R/Q795R/Q831P/R498S/R632Q/R667S/S22P/S45E/S501P/S547N/S550A/S576L/S595F/S610P/S628F/S635P/S637R/S663R/S670G/S679G/S681F/S703N/S717H/S727G/S784D/S804G/T46A/T50G/T529S/T542A/T549I/T609V/T629S/T642S/T663I/T694M/T705I/T706G/T716I/T813A/V508I/V512P/V557A/V573A/V584A/V585L/V613L/V617M/V673M/V687A/V691A/V694A/V718L/V718M/V723A/V729T/V738A/V741L/V774I/V791M/V805L/V812A/V821L/W599R/W676R/W824R/Y533F/Y615F/Y671F/Y680C/Y769S/Y783H/Y794L). The conditions noted are these: Table 4; genes h-mTEX5/T3mA (h-mT1R2-EX5, T1R3mA); HEK293E cells. The method, then: The HEK293E cells maintained by using the DMEM/Ham's F-12 medium (Nakarai Tesque) containing 10% fetal bovine serum ([…]) and 1% Pen Strep (GIBCO) were washed with D-PBS(−) (Nakarai Tesque), and collected from the flask by using 0.25% Trypsin EDTA (GIBCO). The cells were centrifuged (1,200 rpm, 3 minutes), and after the supernatant was removed, suspended in 5% FBS DMEM/Ham's F-12 at a density of 0.75×10^7 cell/ml. This suspension (10 ml) was put into a […] (IWAKI), and culture was performed overnight (37° C., 5% CO2). On the next day, the medium was exchanged with Opti-MEM (30 ml, Invitrogen, Life Technologies), a sweet taste receptor gene mixture (Gα15-trans48LD gene, various kinds of T1R2 chimeric genes, and various kinds of T1R3 chimeric genes, 63.8 μg in total) prepared by using Opti-MEM and Lipofectamin 2000 (Invitrogen, Life Technologies) was slowly added to the cell suspension, and incubation was performed (37° C., 5% CO2) for 6 hours to attain gene transfer.
After the gene transfer, the cells were washed with D-PBS(−), then removed from the flask by using 0.25% Trypsin EDTA (GIBCO), and collected. After the cell number was counted, the cells were suspended in the 5% FBS DMEM medium (2.78 mM glucose, GIBCO) at a density of 0.5×10^6 cell/ml. This cell suspension was put into wells of D-Lysine coat 96-well plate (BD bioscience) in such a volume that the cell count is 7.0×10^4 cells/well, and the cells were cultured overnight.
After the culture, all the medium of the 96 wells were discarded. 200 μl of the staining solution for measurement of intracellular calcium ion′ Calcium Assay Kit Express (Molecular Device), diluted 80 times with an assay buffer (20 mM HEPES, 146 mM NaCl, 1 mM MgSO4, 1.39 mM glucose, 1 mM CaC12, 2.5 mM Probenecid, 0.05% bovine serum albumin) was added to each well, and the plate was left standing at 37° C. for 30 minutes and at room temperature for 45 minutes to perform staining. After the staining, 50 μl of a solution of stimulant (sweet taste substance) prepared with the assay buffer was added to each well, and the fluorescence value was measured for 120 seconds after the stimulation by using FDSSμEELL (Hamamatsu Photonics). By measuring the fluorescence value (Ex. 480 nm, Em. 540 nm) before and after the stimulation, the change of the intracellular free calcium ion concentration caused by addition of the stimulant via a sweet taste receptor was quantitatively investigated. The measurement and analysis of the fluorescence value was performed by using the software attached to FDSSμEELL (FDSS7000EX), and ΔF/F value was calculated in accordance with the following equation, and used for the evaluation. ΔF/F=(Maximum fluorescence value after stimulation−Minimum fluorescence value after stimulation)/(Fluorescence value before stimulation)
Furthermore, by using the ΔF/F values obtained when each sweet taste substance was added, the S/N ratio was calculated. Specifically, the S/N value was calculated by using the minimum value of ΔF/F obtained when each substance was added at various concentrations as noise (N) value, and the similarly obtained maximum value of ΔF/F as the signal (S) value, and used as an index for sensitivity of the measurement of the activity of each receptor. That is, a higher S/N value means a higher sensitivity for detection of an interaction of a sweet taste receptor and a test substance, which makes it easier to detect stimulation with a sweet taste substance or sweet taste-regulating substance of a lower concentration.
The sweet taste substances used as the stimulating substance are acesulfame potassium (Tokyo Kasei Kogyo), sodium saccharin (WAKO), sucralose (SIGMA), sucrose (WAKO), and neotame (SIGMA), as well as aspartame, advantame, and SC-45647 ([3-[(S)-1-phenylethyl]-2-(4-cyanophenyl)guanidino]acetic acid, which were all synthesized in-house.

Residues, ends and D or L forms follow the SMILES beside them.

Sequence of h-mT1R2-EX5/T1R3mosaicA (Q8TE23 with tags, fused parts or gaps with the stated changes limits assumed): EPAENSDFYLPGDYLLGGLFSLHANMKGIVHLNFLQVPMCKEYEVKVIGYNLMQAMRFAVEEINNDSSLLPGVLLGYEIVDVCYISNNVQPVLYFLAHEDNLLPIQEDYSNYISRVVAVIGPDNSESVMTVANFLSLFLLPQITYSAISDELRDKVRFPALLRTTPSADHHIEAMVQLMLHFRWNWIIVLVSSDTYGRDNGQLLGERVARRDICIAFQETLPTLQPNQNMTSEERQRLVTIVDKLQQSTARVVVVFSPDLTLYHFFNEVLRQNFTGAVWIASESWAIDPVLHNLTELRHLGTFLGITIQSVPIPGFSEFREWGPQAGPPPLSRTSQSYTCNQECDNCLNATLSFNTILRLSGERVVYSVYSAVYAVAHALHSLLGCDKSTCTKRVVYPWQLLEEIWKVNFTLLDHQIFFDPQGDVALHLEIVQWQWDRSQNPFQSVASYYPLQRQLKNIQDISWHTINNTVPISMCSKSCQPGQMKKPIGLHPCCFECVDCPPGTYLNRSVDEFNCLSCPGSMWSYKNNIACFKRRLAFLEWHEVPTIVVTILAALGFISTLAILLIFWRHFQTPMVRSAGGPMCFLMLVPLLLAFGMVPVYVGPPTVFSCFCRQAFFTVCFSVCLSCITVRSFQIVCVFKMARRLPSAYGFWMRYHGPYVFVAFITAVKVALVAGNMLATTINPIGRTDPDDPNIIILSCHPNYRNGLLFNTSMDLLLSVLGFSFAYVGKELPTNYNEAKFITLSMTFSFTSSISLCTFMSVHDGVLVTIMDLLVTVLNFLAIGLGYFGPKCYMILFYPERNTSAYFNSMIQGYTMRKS
Sequence of h-mT1R2-EX5/T1R3mosaicA (Q925D8 with tags, fused parts or gaps with the stated changes limits assumed): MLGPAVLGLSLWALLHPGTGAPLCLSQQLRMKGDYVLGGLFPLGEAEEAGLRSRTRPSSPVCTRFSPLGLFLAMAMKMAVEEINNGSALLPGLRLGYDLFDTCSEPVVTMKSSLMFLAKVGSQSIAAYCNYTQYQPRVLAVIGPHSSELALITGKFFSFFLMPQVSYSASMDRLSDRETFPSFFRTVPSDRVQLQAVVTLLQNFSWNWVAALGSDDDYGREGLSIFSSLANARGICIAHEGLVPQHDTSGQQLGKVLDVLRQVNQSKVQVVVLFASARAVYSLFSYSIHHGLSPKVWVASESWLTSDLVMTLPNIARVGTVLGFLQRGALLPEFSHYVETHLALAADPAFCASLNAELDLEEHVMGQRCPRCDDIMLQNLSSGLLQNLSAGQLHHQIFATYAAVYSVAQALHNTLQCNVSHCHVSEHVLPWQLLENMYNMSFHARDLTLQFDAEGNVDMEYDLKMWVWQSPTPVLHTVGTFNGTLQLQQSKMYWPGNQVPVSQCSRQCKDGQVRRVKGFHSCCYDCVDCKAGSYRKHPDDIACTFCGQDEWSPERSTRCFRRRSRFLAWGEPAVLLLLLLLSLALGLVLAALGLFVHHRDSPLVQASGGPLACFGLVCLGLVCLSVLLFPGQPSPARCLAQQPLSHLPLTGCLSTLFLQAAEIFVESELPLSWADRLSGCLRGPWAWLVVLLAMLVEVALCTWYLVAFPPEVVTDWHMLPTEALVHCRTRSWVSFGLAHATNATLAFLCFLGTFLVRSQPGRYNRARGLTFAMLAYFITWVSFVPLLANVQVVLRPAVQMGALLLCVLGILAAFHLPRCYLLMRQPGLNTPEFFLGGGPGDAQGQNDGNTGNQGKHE

In turn, `CC1=CC(=O)NS(=O)(=O)O1` [Acesulfame K, acesulfame potassium] displayed a S/N of 5.1.

In turn, `COC(=O)[C@H](Cc1ccccc1)NC(=O)[C@H](CC(=O)O)NCCCc1ccc(OC)c(O)c1` [Advantame, advantame] showed a S/N of 9.4.

In turn, `COC(=O)[C@H](Cc1ccccc1)NC(=O)[C@@H](N)CC(=O)O` [Aspartame, aspartame] (HELM PEPTIDE1{D.F.[CO[*:1]]}$$$$V2.0) showed a S/N of 7.6. The value for `COC(=O)[C@H](Cc1ccccc1)NC(=O)[C@H](CC(=O)O)NCCC(C)(C)C` [Neotame, neotame] was 7.5; that for `C[C@H](NC(=Nc1ccc(C#N)cc1)NCC(=O)O)c1ccccc1` [SC-45647, [3-[(S)-1-phenylethyl]-2-(4-cyanophenyl)guanidino]acetic acid] was 7.3.

As to `O=C1NS(=O)(=O)c2ccccc21.[Na]` [Saccharin Na, sodium saccharin], the S/N worked out at 4.6. With `OC[C@H]1O[C@H](O[C@]2(CCl)O[C@H](CCl)[C@@H](O)[C@@H]2O)[C@H](O)[C@@H](O)[C@H]1Cl` [Sucralose, sucralose] the figure was 7.4. With `OC[C@H]1O[C@@](CO)(O[C@H]2O[C@H](CO)[C@@H](O)[C@H](O)[C@H]2O)[C@@H](O)[C@@H]1O` [Sucrose, sucrose] the figure was 3.5.
